According to patent publication US10570184B2, “GLP-1/glucagon receptor co-agonists for medical use” (Novo Nordisk A/S, priority 2014, dated 2020):
Starred links: 1 amine or outer side, 2 acyl side, 3 side chain; linkers in the order of their positions; H or OH if unused. Non-standard residues stand in square brackets, D forms with d. Residues, ends and D or L forms follow the SMILES beside them. Groups on a side chain read outwards from the residue. *: point of attachment. C18 diacid = O=C(O)CCCCCCCCCCCCCCCCC(=O)*; γGlu = O=C(O)[C@H](CCC(=O)[*:2])N[*:1]; Ac4c = NC1(C(=O)O)CCC1; AEEA = NCCOCCOCC(=O)O; Aib = CC(C)(N)C(=O)O

Tests used:
[1] = molecular target: T1, human GLP-1 receptor (Homo sapiens, UniProt P43220); experiment: Assay (I)(a) GLP-1 receptor activation, CRE luciferase reporter gene assay in BHK cells; type: cell-based; conditions: without presence of serum albumin; read-out: GLP-1R EC50 (pM) [Assay (I)(a)]
T1 construct: expressed in transfected cells; host or cells: membranes of BHK cells (parent BHKTS13), clone FCW467-12A
In short: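 Stable BHK clone expressing human GLP-1 receptor with CRE-driven firefly luciferase, 5×10EE3 cells/well in medium with 2% ovalbumin and 0.2% Pluronic F-68. Compounds at 1×10EE-13 to 1×10EE-6 M final, 3 h at 37° C.; luminescence read, EC50 (pM) from four-parameter fit.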

[2] = Assay (III) ThT fibrillation assay for physical stability; type: physicochemical; conditions: 250 μM in 10 mM HEPES buffer, 37° C., shaking 960 rpm
In short: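 Glucagon derivative at 250 μM in 10 mM HEPES pH 7.5 with 1 μM ThT was incubated at 37 °C under 960 rpm orbital shaking. Fluorescence (ex 444/em 485 nm) was read every 20 min and fitted for lag time (t0−2τ) and kapp (1/τ). Recovery was soluble peptide after centrifugation/filtration, by RP-HPLC, as percent of initial.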

T1 sequence (P43220 24-463): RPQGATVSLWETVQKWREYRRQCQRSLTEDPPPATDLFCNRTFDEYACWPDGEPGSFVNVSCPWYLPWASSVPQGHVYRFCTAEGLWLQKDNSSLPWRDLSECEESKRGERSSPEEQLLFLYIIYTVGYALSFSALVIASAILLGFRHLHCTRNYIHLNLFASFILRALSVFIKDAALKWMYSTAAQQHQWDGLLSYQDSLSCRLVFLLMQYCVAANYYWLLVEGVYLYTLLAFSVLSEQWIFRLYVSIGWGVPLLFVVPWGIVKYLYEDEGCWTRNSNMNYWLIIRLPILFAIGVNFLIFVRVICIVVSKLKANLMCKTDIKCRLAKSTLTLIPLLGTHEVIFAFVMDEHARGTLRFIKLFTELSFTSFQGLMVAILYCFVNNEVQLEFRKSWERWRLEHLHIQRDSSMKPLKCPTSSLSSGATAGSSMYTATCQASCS

Structure (SMILES)	EC50 [1] [pM]	ThT Assay Lag time (h) [Assay (III), pH 7.5] [2] [h]
CC[C@H](C)[C@H](NC(=O)[C@H](CC(C)C)NC(=O)[C@H](Cc1c[nH]c2ccccc12)NC(=O)[C@H](CCCCNC(=O)COCCOCCNC(=O)COCCOCCNC(=O)CC[C@H](NC(=O)CC[C@H](NC(=O)CC[C@H](NC(=O)CCCCCCCCCCCCCCCCC(=O)O)C(=O)O)C(=O)O)C(=O)O)NC(=O)[C@@H](NC(=O)[C@H](Cc1ccccc1)NC(=O)[C@H](CCC(=O)O)NC(=O)[C@H](CCCNC(=N)N)NC(=O)[C@H](C)NC(=O)[C@H](CCCNC(=N)N)NC(=O)[C@H](CCCNC(=N)N)NC(=O)[C@H](C)NC(=O)[C@H](CC(=O)O)NC(=O)[C@H](CC(C)C)NC(=O)[C@H](Cc1ccc(O)cc1)NC(=O)[C@H](CCCCN)NC(=O)[C@H](CO)NC(=O)[C@H](Cc1ccc(O)cc1)NC(=O)[C@H](CC(=O)O)NC(=O)[C@H](CO)NC(=O)[C@@H](NC(=O)[C@H](Cc1ccccc1)NC(=O)[C@@H](NC(=O)CNC(=O)[C@H](CCC(N)=O)NC(=O)C(C)(C)NC(=O)[C@@H](N)Cc1c[nH]cn1)[C@@H](C)O)[C@@H](C)O)C(C)C)C(=O)N[C@@H](CO)C(=O)N[C@H](C(N)=O)[C@@H](C)O [Chem. 4, N^ε24-[2-[2-[2-[[2-[2-[2-[[(4S)-4-carboxy-4-[[(4S)-4-carboxy-4-[[(4S)-4-carboxy-4-(17-carboxyheptadecanoylamino)butanoyl]amino]butanoyl]amino]butanoyl]amino]ethoxy]ethoxy]acetyl]amino]ethoxy]ethoxy]acetyl]-[Aib2,Ala16,Arg20,Glu21,Lys24,Ile27,Ser28]-Glucagon amide] (H-H[Aib]QGTFTSDYSKYLDARRAREFVK([AEEA-AEEA-γGlu-γGlu-γGlu-C18 diacid])WLIST-NH2; N-terminus assumed)	3	–
CC[C@H](C)[C@H](NC(=O)[C@H](CC(C)C)NC(=O)[C@H](Cc1c[nH]c2ccccc12)NC(=O)[C@H](CCC(N)=O)NC(=O)[C@@H](NC(=O)[C@H](Cc1ccccc1)NC(=O)[C@H](CCC(=O)O)NC(=O)[C@H](CCCNC(=N)N)NC(=O)[C@H](C)NC(=O)[C@H](CCCNC(=N)N)NC(=O)[C@H](CCCNC(=N)N)NC(=O)[C@H](CO)NC(=O)[C@H](CCC(=O)O)NC(=O)[C@H](CC(C)C)NC(=O)[C@H](Cc1ccc(O)cc1)NC(=O)[C@H](CCCNC(=N)N)NC(=O)[C@H](CO)NC(=O)[C@H](CC(C)C)NC(=O)[C@H](CC(=O)O)NC(=O)[C@H](CO)NC(=O)[C@@H](NC(=O)[C@H](Cc1ccccc1)NC(=O)[C@@H](NC(=O)CNC(=O)[C@H](CCC(N)=O)NC(=O)C1(NC(=O)[C@@H](N)Cc2c[nH]cn2)CCC1)[C@@H](C)O)[C@@H](C)O)C(C)C)C(=O)N[C@@H](CCCCNC(=O)CC[C@H](NC(=O)CC[C@H](NC(=O)COCCOCCNC(=O)COCCOCCNC(=O)CC[C@H](NC(=O)CC[C@H](NC(=O)CCCCCCCCCCCCCCCCC(=O)O)C(=O)O)C(=O)O)C(=O)O)C(=O)O)C(=O)N[C@H](C(N)=O)[C@@H](C)O [Chem. 17, N^ε28-[(4S)-4-carboxy-4-[[(4S)-4-carboxy-4-[[2-[2 [2-[[2-[2-[2-[[(4S)-4-carboxy-4-[[(4S)-4-carboxy-4-(17-carboxyheptadecanoylamino)butanoyl]amino]butanoyl]amino]ethoxy]ethoxy]acetyl]amino]ethoxy]ethoxy]acetyl]amino]butanoyl]amino]butanoyl]-[Acb2,Leu10,Arg12,Glu15,Arg20,Glu21,Ile27,Lys28]-Glucagon amide] (H-H[Ac4c]QGTFTSDLSRYLESRRAREFVQWLIK([γGlu-γGlu-AEEA-AEEA-γGlu-γGlu-C18 diacid])T-NH2)	4	12.3
CC[C@H](C)[C@H](NC(=O)[C@H](CC(C)C)NC(=O)[C@H](Cc1c[nH]c2ccccc12)NC(=O)[C@H](CCC(N)=O)NC(=O)[C@@H](NC(=O)[C@H](Cc1ccccc1)NC(=O)[C@H](CCC(=O)O)NC(=O)[C@H](CCCNC(=N)N)NC(=O)[C@H](C)NC(=O)[C@H](CCCNC(=N)N)NC(=O)[C@H](CCCNC(=N)N)NC(=O)[C@H](CO)NC(=O)[C@H](CCC(=O)O)NC(=O)[C@H](CC(C)C)NC(=O)[C@H](Cc1ccc(O)cc1)NC(=O)[C@H](CCCCN)NC(=O)[C@H](CO)NC(=O)[C@H](CC(C)C)NC(=O)[C@H](CC(=O)O)NC(=O)[C@H](CO)NC(=O)[C@@H](NC(=O)[C@H](Cc1ccccc1)NC(=O)[C@@H](NC(=O)CNC(=O)[C@H](CCC(N)=O)NC(=O)C1(NC(=O)[C@@H](N)Cc2c[nH]cn2)CCC1)[C@@H](C)O)[C@@H](C)O)C(C)C)C(=O)N[C@@H](CCCCNC(=O)COCCOCCNC(=O)COCCOCCNC(=O)CC[C@H](NC(=O)CC[C@H](NC(=O)CCCCCCCCCCCCCCCCC(=O)O)C(=O)O)C(=O)O)C(=O)N[C@H](C(N)=O)[C@@H](C)O [Chem. 18, N^ε28-[2-[2-[2-[[2-[2-[2-[[(4S)-4-carboxy-4-[[(4S)-4-carboxy-4-(17-carboxyheptadecanoylamino)butanoyl]amino]butanoyl]amino]ethoxy]ethoxy]acetyl]amino]ethoxy]ethoxy]acetyl]-[Acb2,Leu10,Glu15,Arg20,Glu21,Ile27,Lys28]-Glucagon amide] (H-H[Ac4c]QGTFTSDLSKYLESRRAREFVQWLIK([AEEA-AEEA-γGlu-γGlu-C18 diacid])T-NH2)	4	5.0

Next, values leading:

EC50 [1] [pM]	ThT Assay Lag time (h) [Assay (III), pH 7.5] [2] [h]	Structure (SMILES)
2	–	CC[C@H](C)[C@H](NC(=O)[C@H](CC(C)C)NC(=O)[C@H](Cc1c[nH]c2ccccc12)NC(=O)[C@H](CCC(N)=O)NC(=O)[C@@H](NC(=O)[C@H](Cc1ccccc1)NC(=O)[C@H](CC(=O)O)NC(=O)[C@H](CCC(N)=O)NC(=O)[C@H](C)NC(=O)[C@H](CCCNC(=N)N)NC(=O)[C@H](CCCNC(=N)N)NC(=O)[C@H](C)NC(=O)[C@H](CC(=O)O)NC(=O)[C@H](CC(C)C)NC(=O)[C@H](Cc1ccc(O)cc1)NC(=O)[C@H](CCCCN)NC(=O)[C@H](CO)NC(=O)[C@H](CC(C)C)NC(=O)[C@H](CC(=O)O)NC(=O)[C@H](CO)NC(=O)[C@@H](NC(=O)[C@H](Cc1ccccc1)NC(=O)[C@@H](NC(=O)CNC(=O)[C@H](CCC(N)=O)NC(=O)C(C)(C)NC(=O)[C@@H](N)Cc1c[nH]cn1)[C@@H](C)O)[C@@H](C)O)C(C)C)C(=O)N[C@@H](CCCCNC(=O)COCCOCCNC(=O)COCCOCCNC(=O)CC[C@H](NC(=O)CC[C@H](NC(=O)CC[C@H](NC(=O)CCCCCCCCCCCCCCCCC(=O)O)C(=O)O)C(=O)O)C(=O)O)C(=O)N[C@H](C(N)=O)[C@@H](C)O [Chem. 7, N^ε28-[2-[2-[2-[[2-[2-[2-[[(4S)-4-carboxy-4-[[(4S)-4-carboxy-4-[[(4S)-4-carboxy-4-(17-carboxyheptadecanoylamino)butanoyl]amino]butanoyl]amino]butanoyl]amino]ethoxy]ethoxy]acetyl]amino]ethoxy]ethoxy]acetyl]-[Aib2,Leu10,Ala16,Ile27,Lys28]-Glucagon amide] (H-H[Aib]QGTFTSDLSKYLDARRAQDFVQWLIK([AEEA-AEEA-γGlu-γGlu-γGlu-C18 diacid])T-NH2; N-terminus assumed)
5	16.0	CC[C@H](C)[C@H](NC(=O)[C@H](CC(C)C)NC(=O)[C@H](Cc1c[nH]c2ccccc12)NC(=O)[C@H](CCC(N)=O)NC(=O)[C@@H](NC(=O)[C@H](Cc1ccccc1)NC(=O)[C@H](CCC(=O)O)NC(=O)[C@H](CCCNC(=N)N)NC(=O)[C@H](C)NC(=O)[C@H](CCCNC(=N)N)NC(=O)[C@H](CCCNC(=N)N)NC(=O)[C@H](CO)NC(=O)[C@H](CCC(=O)O)NC(=O)[C@H](CC(C)C)NC(=O)[C@H](Cc1ccc(O)cc1)NC(=O)[C@H](CCCCN)NC(=O)[C@H](CO)NC(=O)[C@H](CC(C)C)NC(=O)[C@H](CC(=O)O)NC(=O)[C@H](CO)NC(=O)[C@@H](NC(=O)[C@H](Cc1ccccc1)NC(=O)[C@@H](NC(=O)CNC(=O)[C@H](CCC(N)=O)NC(=O)C1(NC(=O)[C@@H](N)Cc2c[nH]cn2)CCC1)[C@@H](C)O)[C@@H](C)O)C(C)C)C(=O)N[C@@H](CCCCNC(=O)CNC(=O)[C@H](CO)NC(=O)[C@H](CCC(=O)O)NC(=O)CNC(=O)[C@H](CO)NC(=O)CC[C@H](NC(=O)CC[C@H](NC(=O)CCCCCCCCCCCCCCCCC(=O)O)C(=O)O)C(=O)O)C(=O)N[C@H](C(N)=O)[C@@H](C)O [Chem. 16, N^ε28-[2-[[(2S)-2-[[(2S)-4-carboxy-2-[[2-[[(2S)-2-[[(4S)-4-carboxy-4-[[(4S)-4-carboxy-4-(17-carboxyheptadecanoylamino)butanoyl]amino]butanoyl]amino]-3-hydroxypropanoyl]amino]acetyl]amino]butanoyl]amino]-3-hydroxypropanoyl]amino]acetyl]-[Acb2,Leu10,Glu15,Arg20,Glu21,Ile27,Lys28]-Glucagon amide] (HELM PEPTIDE1{H.[O=C(C1(N[*:1])CCC1)[*:2]].Q.G.T.F.T.S.D.L.S.K.Y.L.E.S.R.R.A.R.E.F.V.Q.W.L.I.K.T.[am]}|PEPTIDE2{[O=C(O)CCCCCCCCCCCCCCCCC(=O)[*:2]].[gGlu].[gGlu].S.G.E.S.G}$PEPTIDE1,PEPTIDE2,28:R3-8:R2$$$V2.0)
